# ChEMBL document CHEMBL1821691, “Cytotoxic C21 and C22 terpenoid-derived metabolites from the sponge Ircinia sp” (J Nat Prod, 2011)
# pIC50: −log10 of the molar value.
# Assays:
# [1] = Cytotoxicity against human Hep3B cells by XTT reagent based automated microculture tetrazolium assay; type: functional, cell-based, Hep 3B2
# HepG2 = assay: Cytotoxicity against human HepG2 cells by XTT reagent based automated microculture tetrazolium assay; type: functional, cell-based
# K562 = assay: Cytotoxicity against human K562 cells by XTT reagent based automated microculture tetrazolium assay; type: functional, cell-based
# DLD-1 = assay: Cytotoxicity against human DLD1 cells by XTT reagent based automated microculture tetrazolium assay; type: functional, cell-based
smiles,measurement,setting,value
CC(=O)O[C@H](CC/C(C)=C/[C@@H](O)C/C(C)=C/CCc1ccoc1)[C@]1(C)CCC(=O)O1,pIC50,[1],5.96
same,pIC50,HepG2,6.30
same,pIC50,K562,5.27
same,pIC50,DLD-1,7.52
CC(=O)O[C@H](/C=C(\C)CC[C@@H](O)[C@]1(C)CCC(=O)O1)C/C(C)=C/CCc1ccoc1,pIC50,[1],4.97
same,pIC50,HepG2,5.66
same,pIC50,K562,5.02
same,pIC50,DLD-1,6.70
C/C(=C\[C@@H](O)C/C(C)=C/CCc1ccoc1)CC[C@@H](O)[C@]1(C)CCC(=O)O1 [IRCIFORMONIN B],pIC50,[1],5.19
same,pIC50,HepG2,6.00
same,pIC50,K562,5.11
same,pIC50,DLD-1,7.40
CC(=O)O[C@H](/C=C(\C)CC[C@@H](OC(C)=O)[C@]1(C)CCC(=O)O1)C/C(C)=C/CCc1ccoc1 [IRCIFORMONIN F],pIC50,[1],5.15
same,pIC50,HepG2,5.77
same,pIC50,K562,4.99
same,pIC50,DLD-1,6.22
C/C(=C\[C@@H](O)C/C(C)=C/CCCC(=O)CO)CC[C@@H](O)[C@]1(C)CCC(=O)O1 [IRCINOLIN A],pIC50,[1],< 4.70
same,pIC50,HepG2,< 4.70
same,pIC50,K562,< 4.70
same,pIC50,DLD-1,< 4.70
